Laboratory results published in US20250137032A1, “TWO-COMPONENT SYSTEMS FOR USE IN CELL-FREE GENE EXPRESSION” (priority 2023, published 2025).
Where a name gives a salt, the structure may show the parent alone.

Experiments:
[1] = literature value, cited from earlier work; for Kc (kBT) (6): bending rigidity; for CPP (4): critical packing parameter; for Tm (7): membrane transition temperature, in °C (unit assumed)
[2] = system: cell-free protein synthesis; assay: Cell-free protein synthesis (myTXTL): NarX western blot band intensity and luminescence; type: biochemical, E. coli; settings: increasing ligand concentration, NarX band intensity / luminescence (FIG. 7, FIG. 14)
Experimental: Protein expression was performed using the myTxTl system (Arbor Biosceinces). 5 μL reactions were assembled with 10 mM lipid, 0.1 nM plasmid encoding T7 RNA polymerase, 9.9 nM plasmids encoding NarX, NarL, and reporter gene (nano luciferase or GFP) in specified ratios, and various concentration of ligands. Cell-free reactions were allowed to progress at 30° C. for 16 hours. Luciferase luminescence was read using the NanoGlo luciferase system and GFP fluorescence (ex. 480 nm, em. 507 nm) was read using a Molecular Devices Spectra Max i3 plate reader. To calculate fold change, luminescence values in the presence of nitrate were divided by the luminescence values in the absence of nitrate for each replicate.
1 μL of cell-free reaction was diluted to 15 μL in Laemlli buffer and heated at 95° C. for 10 minutes. Samples were then loaded and run on a 12% Mini-PROTEAN TGX Precast Protein Gel (Bio-Rad) at 150 V for 90 minutes. Wet transfer was performed onto a PVDF membrane (Bio-Rad) for 45 min at 100 V. Membranes were then blocked for an hour at room temperature in 5% milk in TBST (pH 7.6:50 mM Tris, 150 mM NaCl, HCl to pH 7.6, 0.1% Tween) and incubated for 1 hour at room temperature or overnight at 4° C. with primary solution (anti-Flag (Sigma F1804) or anti-Myc (ab32), diluted 1:1000 in 5% milk in TBST). Primary antibody solution was decanted, and the membrane was washed three times for 5 minutes in TBST and then incubated in secondary solution at room temperature for 1 hour (HRP-anti-Mouse (CST 7076) diluted 1:3000 in 5% milk in TBST). Membranes were then washed in TBST and incubated with Clarity Western ECL Substrate (Bio-Rad) for 5 min. Blots were imaged using an Azure Biosystems c280 imager and band intensities were quantified with ImageJ.

[3] = target: T1, NarX-RssA (Serratia marcescens, UniProt Q8GP19); assay: Cell-free iron-sensing NarX chimera, luciferase reporter; type: biochemical
T1 construct: All genes were; made in house; host or cells: cell-free expression in situ, myTXTL E. coli extract, with DMPC, POPC or DOPC vesicles

[4] = Dynamic light scattering of 100% POPC vesicles in the presence of ligands (liposome stability); type: physicochemical
[5] = system: NarX-VanS Chimera; assay: Cell-free vancomycin-sensing NarX chimera, luciferase reporter; type: biochemical, Enterococcus faecium
[6] = plasmid concentrations which enabled functional NarX sensing
[7] = reporter plasmid reduced by 90%, DMPC, POPC, DOPC vesicles
[8] = 100% POPC vesicles in the presence of 100 μM ligand
[9] = 100% POPC vesicles in the presence of 1 mM ligand

Structure (SMILES)	Kc (kBT) (6) [1]	CPP (4) [1]	2 Dc (A) (2) [1]	Area (Å^2) (1) [1]	C2:C2 (Å) (6) [1]	DHH (Å) (2) [1]	F (kcal/mol/Å) (6) [1]	Ka (dyn/cm) (6) [1]	Kc^PBM (6) [1]	Kg (10^−20 J) (6) [1]	Kg/Kc (6) [1]	Kg^M (10^−20 J) (6) [1]	Kg^M/Kc^M (6) [1]	Ktw (10^−20 J) (6) [1]	Kθ (10^−20 J/nm^2) (6) [1]	Lipid Volume (A^3) (3) [1]	P-C (Å) Head group thickness (6) [1] [Å]	P:P (Å) (6) [1]	δ (Å) (6) [1]	Tm (7) [1]	further results
CCCCCCCC/C=C\CCCCCCCC(=O)O[C@H](COC(=O)CCCCCCCCCCCCCCC)COP(=O)(O)OCCN [POPE, 1-palmitoyl-2-oleoyl-sn-glycero-3-phosphoethanolamine]	31.2	1.08	32.6	56.6	30.67	43.4	0.2041	260	10.78	5.85 10^−20 J	0.44	0.06 10^−20 J	0.01	2.36 10^−20 J	8.04 10^−20 J/nm^2	1176.8	10.88	41.55	10.12	25	# of lipid contacts (5) [1]: 1.5; Lateral Pressure (pN/nm^2) (3) [1]: 456 pN/nm^2; Ro (Å) (6) [1]: −2220 Å; γ chain (6) [1]: 0.188
CCCCCCCC/C=C\CCCCCCCC(=O)O[C@H](COC(=O)CCCCCCCCCCCCCCC)COP(=O)([O-])OCC(O)CO.[Na+] (mixture of isomers) [POPG, 1-palmitoyl-2-oleoyl-sn-glycero-3-phospho-(1′-rac-glycerol) (sodium salt)]	26.9	0.7	27.9	66	26.88	38.5	0.0036	180	5.67	−2.76 10^−20 J	−0.24	−1.43 10^−20 J	−0.25	1.05 10^−20 J	6.15 10^−20 J/nm^2	1226.6	10.61	37.49	9.57	−2	
CCCCCCCC/C=C\CCCCCCCC(=O)OC[C@H](COP(=O)([O-])OCC[N+](C)(C)C)OC(=O)CCCCCCC/C=C\CCCCCCCC [DOPC, 1,2-dioleoyl-sn-glycero-3-phosphocholine]	28.8	1.09	28.8	67.4	27.37	36.7	0.061	290	9.71	−0.08 10^−20 J	−0.01	−0.84 10^−20 J	−0.14	0.99 10^−20 J	6.4 10^−20 J/nm^2	1304.5	10.98	38.35	9.41	−17	Lateral Pressure (pN/nm^2) (3) [1]: 480 pN/nm^2; γ chain (6) [1]: 0.18(5) ·
O.O.O.O.O.O=S(=O)([O-])[O-].[Cu+2] [copper, copper (II) sulfate pentahydrate]																					effect on cell-free protein expression [2]: inhibited cell-free protein expression; effect on cell-free protein expression ([2]; listed as Copper): inhibits cell-free protein synthesis
CCCCCCCC/C=C\CCCCCCCC(=O)OC(COC(=O)CCCCCCCCCCCCCCC)COP(=O)([O-])OCC[N+](C)(C)C (stereo not drawn) [POPC, 1-palmitoyl-2-oleoyl-glycero-3-phosphocholine]	31.7	0.61	28.8	64.3	27.52	37	0.0303	280	9.5	−1.38 10^−20 J	−0.1	−1.09 10^−20 J	−0.17	1.45 10^−20 J	5.52 10^−20 J/nm^2	1231.2	11.02	38.54	9.64	−9	# of lipid contacts (5) [1]: 2.75; Lateral Pressure (pN/nm^2) (3) [1]: 517 pN/nm^2; Ro (Å) (6) [1]: −315 Å; γ chain (6) [1]: 0.198
CCCCCCCCCCCCCC(=O)OC[C@H](COP(=O)([O-])OCC[N+](C)(C)C)OC(=O)CCCCCCCCCCCCC [DMPC, 1,2-dimyristoyl-sn-glycero-3-phosphocholine]	29.3	1	25.4	60.6	24.54	35.3	−0.0225	210	5.75	−3.23 10^−20 J	−0.26	−1.32 10^−20 J	−0.22	2.18 10^−20 J	4.02 10^−20 J/nm^2	1100	11.11	35.65	9.48	24	Lateral Pressure (pN/nm^2) (3) [1]: 442 pN/nm^2; Ro (Å) (6) [1]: −47 Å; γ chain (6) [1]: 0.247
[Cl][Fe]([Cl])[Cl] [Iron, iron (III) chloride anhydrous]																					sensor response to ligand (gene expression) [3, 6]: no gene expression was observed; sensor response to ligand (luciferase expression) [3, 7]: functional sensors; Diameter (nm) [4, 8]: 118.62 nm; P.D.I. [4, 8]: 0.135
CN[C@H](CC(C)C)C(=O)N[C@H]1C(=O)N[C@@H](CC(N)=O)C(=O)N[C@H]2C(=O)N[C@H]3C(=O)N[C@H](C(=O)N[C@H](C(=O)O)c4cc(O)cc(O)c4-c4cc3ccc4O)[C@H](O)c3ccc(c(Cl)c3)Oc3cc2cc(c3O[C@@H]2O[C@H](CO)[C@@H](O)[C@H](O)[C@H]2O[C@H]2C[C@](C)(N)[C@H](O)[C@H](C)O2)Oc2ccc(cc2Cl)[C@H]1O [Vancomycin, vancomycin hydrochloride]																					sensor response to ligand (gene expression) [5, 6]: no gene expression was observed; sensor response to ligand (luciferase expression) [5, 7]: did not induce an increase in luciferase expression; Diameter (nm) [4, 9]: 124.88 nm; P.D.I. [4, 9]: 0.189
